Source: US10513694B2, “Thienopyrrole compounds and uses thereof” (PROMEGA CORPORATION, priority 2015, dated 2019)
Counter-ions that a name gives are not always drawn.

Each compound was assayed against NANOLUC® enzyme (Oplophorus gracilirostris, UniProt Q9GV45, A31E/A60N/A81I/F95D/I117V/K70R/L54V/L99Q/M102K/N193R/P142E/Q151K/Q38R/Q45L/V71I/Y165I) (assay: Inhibitor IC50 determination (NANOLUC enzyme, furimazine)). Conditions: IC50 (uM), 0.4 ng/ml NANOLUC enzyme, final furimazine 10 uM (at Km).
Type: biochemical
Experimental: The following example provides the IC50 values for the compounds disclosed herein. See Table 5 NANOLUC® enzyme was diluted to 0.4 ng/ml in CO2 independent media+10% FBS to make the detection reagent. A 3× dilution series of each inhibitor was then made in the detection reagent. A “no inhibitor” control was also made for each sample. 50 ul of each inhibitor dilution was mixed with 50 ul of NanoGlo buffer containing 20 uM furimazine. (Final furimazine concentration is 10 uM which is at Km.), and luminescence measured. Each sample was normalized to the “no inhibitor” control. The […] values were then determined using GraphPad Prism (log [inhibitor] vs. normalized response).

NANOLUC® enzyme, sequence (Q9GV45 28-196 with tags or gaps with the stated changes limits assumed): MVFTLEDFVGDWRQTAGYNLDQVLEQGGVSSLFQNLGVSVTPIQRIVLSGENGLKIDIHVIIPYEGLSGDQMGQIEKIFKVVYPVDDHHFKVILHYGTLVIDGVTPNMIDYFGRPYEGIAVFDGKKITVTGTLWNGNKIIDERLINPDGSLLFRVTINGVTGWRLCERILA

| Compound | IC50 [µM] |
| --- | --- |
| CCN(C(=O)Cn1c(C(=O)N[C@H]2CC[C@H](C(=O)NCCN(C)C)CC2)cc2sccc21)c1cccc(C)c1 [JRW-0044, N-(trans-4-((2-(dimethylamino)ethyl)carbamoyl)cyclohexyl)-4-(2-(ethyl(m-tolyl)amino)-2-oxoethyl)-4H-thieno[3,2-b]pyrrole-5-carboxamide] | 16.8 |
| CCN(C(=O)Cn1cccc1C(=O)N[C@H]1CC[C@H](C(=O)OC)CC1)c1cccc(C)c1 [JRW-0456, Methyl trans-4-(1-(2-(ethyl(m-tolyl)amino)-2-oxoethyl)-1H-pyrrole-2-carboxamido)cyclohexane-1-carboxylate] | 7.4 |
| CCN(C(=O)Cn1c(C(=O)NCCCCCCCC(=O)O)cc2sccc21)c1cccc(C)c1 [JRW-0198, 8-(4-(2-(ethyl(m-tolyl)amino)-2-oxoethyl)-4H-thieno[3,2-b]pyrrole-5-carboxamido)octanoic acid] | 1 |
| CCN(C(=O)Cn1c(C(=O)N[C@H]2CC[C@H](C(=O)NCCCCCC(=O)OC)CC2)cc2sccc21)c1cccc(C)c1 [JRW-0145, methyl 6-(trans-4-(4-(2-(ethyl(m-tolyl)amino)-2-oxoethyl)-4H-thieno[3,2-b]pyrrole-5-carboxamido)cyclohexane-1-carboxamido)hexanoate] | 0.12 |
| CCN(C(=O)Cn1c(C(=O)N[C@H]2CC[C@H](C(=O)OC)CC2)cc2sccc21)c1ccccc1C [JRW-0330, Methyl trans-4-(4-(2-(ethyl(o-tolyl)amino)-2-oxoethyl)-4H-thieno[3,2-b]pyrrole-5-carboxamido)cyclohexane-1-carboxylate] | 0.7 |
| CCN(C(=O)Cn1c(C(=O)N[C@H]2CC[C@@H](C(=O)NCCCCCC(=O)O)CC2)cc2sccc21)c1cccc(C)c1 [JRW-0264, 6-(cis-4-(4-(2-(ethyl(m-tolyl)amino)-2-oxoethyl)-4H-thieno[3,2-b]pyrrole-5-carboxamido)cyclohexane-1-carboxamido)hexanoic acid] | 0.24 |
| CCN(C(=O)Cn1c(C(=O)N[C@H]2CC[C@H](C(=O)NCCO)CC2)cc2sccc21)c1cccc(C)c1 [JRW-0043, 4-(2-(ethyl(m-tolyl)amino)-2-oxoethyl)-N-(trans-4-((2-hydroxyethyl)carbamoyl)cyclohexyl)-4H-thieno[3,2-b]pyrrole-5-carboxamide] | 0.84 |
| COCCOCCN(C(=O)Cn1c(C(=O)N[C@H]2CC[C@H](C(=O)OC)CC2)cc2sccc21)c1cccc(C)c1 [JRW-0110, Methyl-trans-4-(4-(2-((2-(2-methoxyethoxy)ethyl)(m-tolyl)amino)-2-oxoethyl)-4H-thieno[3,2-b]pyrrole-5-carboxamido)cyclohexane-1-carboxylate] | 3 |
| COCCOCCN(C(=O)Cn1c(C(=O)NC2CCCCC2)cc2sccc21)c1cccc(C)c1 [JRW-0109, N-cyclohexyl-4-(2-((2-(2-methoxyethoxy)ethyl)(m-tolyl)amino)-2-oxoethyl)-4H-thieno[3,2-b]pyrrole-5-carboxamide] | 10.1 |
| CCN(C(=O)Cn1c(C(=O)N[C@H]2CC[C@H](C(=O)O)CC2)cc2sccc21)c1cccc(C)c1 [JRW-0034, trans-4-(4-(2-(ethyl(m-tolyl)amino)-2-oxoethyl)-4H-thieno[3,2-b]pyrrole-5-carboxamido)cyclohexane-1-carboxylic acid] | 0.059 |
| CCN(C(=O)Cn1c(C(=O)N[C@H]2CC[C@H](C(=O)OC)CC2)cc2sccc21)c1cccc(C(N)=O)c1 [JRW-0322, Methyl trans-4-(4-(2-((3-carbamoylphenyl)(ethyl)amino)-2-oxoethyl)-4H-thieno[3,2-b]pyrrole-5-carboxamido)cyclohexane-1-carboxylate] | 0.2 |
| CCc1cccc(N(CC)C(=O)Cn2c(C(=O)N[C@H]3CC[C@H](C(=O)OC)CC3)cc3ccccc32)c1 [JRW-0424, Methyl trans-4-(1-(2-(ethyl(3-ethylphenyl)amino)-2-oxoethyl)-1H-indole-2-carboxamido)cyclohexane-1-carboxylate] | 0.005 |
| CCCCCCN(C(=O)Cn1c(C(=O)NC2CCCCC2)cc2sccc21)c1cccc(C)c1 [JRW-0148, N-cyclohexyl-4-(2-(hexyl(m-tolyl)amino)-2-oxoethyl)-4H-thieno[3,2-b]pyrrole-5-carboxamide] | 5.3 |
| CCc1cccc(N(CC)C(=O)Cn2c(C(=O)N[C@H]3CC[C@H](C(=O)NCCCCCCO)CC3)cc3sccc32)c1 [JRW-0429, 4-(2-(Ethyl(3-ethylphenyl)amino)-2-oxoethyl)-N-(trans-4-((6-hydroxyhexyl)carbamoyl)cyclohexyl)-4H-thieno[3,2-b]pyrrole-5-carboxamide] | 0.0021 |
| CCN(C(=O)Cn1c(C(=O)N[C@H]2CC[C@H](C(=O)OC)CC2)cc2sccc21)c1ccc(C)cc1 [JRW-0334, Methyl trans-4-(4-(2-(ethyl(p-tolyl)amino)-2-oxoethyl)-4H-thieno[3,2-b]pyrrole-5-carboxamido)cyclohexane-1-carboxylate] | 1.3 |
| CCN(C(=O)Cn1c(C(=O)N[C@H]2CC[C@H](C(=O)OC)CC2)cc2ccc(OC)cc21)c1cccc(C)c1 [JRW-0359, Methyl trans-4-(1-(2-(ethyl(m-tolyl)amino)-2-oxoethyl)-6-methoxy-1H-indole-2-carboxamido)cyclohexane-1-carboxylate] | 3 |
| CCc1cccc(N(CC)C(=O)Cn2c(C(=O)N[C@H]3CC[C@H](C(=O)NCCCCCCS(=O)(=O)O)CC3)cc3sccc32)c1 [JRW-0432, Sodium 6-(trans-4-(4-(2-(ethyl(3-ethylphenyl)amino)-2-oxoethyl)-4H-thieno[3,2-b]pyrrole-5-carboxamido)cyclohexane-1-carboxamido)hexane-1-sulfonate] | 0.0031 |
| CCN(C(=O)Cn1c(C(=O)Nc2cccc(C(=O)OC)c2)cc2sccc21)c1cccc(C)c1 [JRW-0151, methyl 3-(4-(2-(ethyl(m-tolyl)amino)-2-oxoethyl)-4H-thieno[3,2-b]pyrrole-5-carboxamido)benzoate] | 7 |
| CCN(C(=O)Cn1c(C(=O)N[C@H]2CC[C@H](C(=O)NCCCCCCCC(=O)O)CC2)cc2sccc21)c1cccc(C)c1 [JRW-0188, 8-(trans-4-(4-(2-(ethyl(m-tolyl)amino)-2-oxoethyl)-4H-thieno[3,2-b]pyrrole-5-carboxamido)cyclohexane-1-carboxamido)octanoic acid] | 0.022 |
| CCCCCCN(C(=O)Cn1c(C(=O)N[C@H]2CC[C@H](C(=O)OC)CC2)cc2sccc21)c1cccc(C)c1 [JRW-0149, methyl-trans-4-(4-(2-(hexyl(m-tolyl)amino)-2-oxoethyl)-4H-thieno[3,2-b]pyrrole-5-carboxamido)cyclohexane-1-carboxylate] | 2.5 |
| CCN(C(=O)Cn1c(C(=O)N[C@H]2CC[C@H](C(=O)OC)CC2)cc2ccccc21)c1cccc(C)c1 [JRW-0355, Methyl trans-4-(1-(2-(ethyl(m-tolyl)amino)-2-oxoethyl)-1H-indole-2-carboxamido)cyclohexane-1-carboxylate] | 0.052 |
| CCN(C(=O)Cn1c(C(=O)N[C@H]2CC[C@H](C(=O)OC)CC2)cc2sccc21)c1cccc(N(C)C)c1 [JRW-0478, Methyl trans-4-(4-(2-((3-(dimethylamino)phenyl)(ethyl)amino)-2-oxoethyl)-4H-thieno[3,2-b]pyrrole-5-carboxamido)cyclohexane-1-carboxylate] | 0.065 |
| CCN(C(=O)Cn1c(C(=O)N[C@H]2CC[C@@H](C(=O)OC)CC2)cc2sccc21)c1cccc(C)c1 [JRW-0041, methyl-cis-4-(4-(2-(ethyl(m-tolyl)amino)-2-oxoethyl)-4H-thieno[3,2-b]pyrrole-5-carboxamido)cyclohexane-1-carboxylate] | 0.2 |
| CCN(C(=O)Cn1c(C(=O)N[C@H]2CC[C@H](C(=O)NC3CCN(C(C)=O)CC3)CC2)cc2sccc21)c1cccc(C)c1 [JRW-0195, N-(trans-4-((1-acetylpiperidin-4-yl)carbamoyl)cyclohexyl)-4-(2-(ethyl(m-tolyl)amino)-2-oxoethyl)-4H-thieno[3,2-b]pyrrole-5-carboxamide] | 0.48 |
| CCN(C(=O)Cn1c(C(=O)N[C@H]2CC[C@H](C(=O)OC)CC2)cc2sccc21)c1cccc(CBr)c1 [JRW-0466, Methyl trans-4-(4-(2-((3-(bromomethyl)phenyl)(ethyl)amino)-2-oxoethyl)-4H-thieno[3,2-b]pyrrole-5-carboxamido)cyclohexane-1-carboxylate] | 0.0018 |
| CCN(C(=O)Cn1c(C(=O)N[C@H]2CC[C@H](C(=O)OC)CC2)cc2sccc21)c1cccc(CC(C)C)c1 [JRW-0508, Methyl trans-4-(4-(2-(ethyl(3-isobutylphenyl)amino)-2-oxoethyl)-4H-thieno[3,2-b]pyrrole-5-carboxamido)cyclohexane-1-carboxylate] | 0.027 |
| CCN(C(=O)Cn1c(C(=O)N2CCCC2)cc2sccc21)c1cccc(C)c1 [JRW-0008, N-ethyl-2-(5-(pyrrolidine-1-carbonyl)-4H-thieno[3,2-b]pyrrol-4-yl)-N-(m-tolyl)acetamide] | 1.1 |
| CCOC(=O)Cc1ccc(NC(=O)c2cc3sccc3n2CC(=O)N(CC)c2cccc(C)c2)cc1 [JRW-0152, ethyl 2-(4-(4-(2-(ethyl(m-tolyl)amino)-2-oxoethyl)-4H-thieno[3,2-b]pyrrole-5-carboxamido)phenyl)acetate] | 4.3 |
| CCN(C(=O)Cn1c(C(=O)N[C@H]2CC[C@H](C(=O)NCCCCCCN)CC2)cc2sccc21)c1cccc(C)c1 [JRW-0241, N-(trans-4-((6-aminohexyl)carbamoyl)cyclohexyl)-4-(2-(ethyl(m-tolyl)amino)-2-oxoethyl)-4H-thieno[3,2-b]pyrrole-5-carboxamide hydrochloride] | 0.063 |
